# Experimental data taken from patent US20230091047A1 (priority 2019, published 2023).
# Like-named read-outs stand apart in the source and are kept apart here.
# Experiments:
# [1] = in vitro; assay type: cell-based; settings: HepG2 or HepG2.117 cells, ATPlite, mean value
# Summary of the method: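 Luminescent ATP quantitation served as the viability endpoint following a 3- or 4-day incubation with test compounds.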
# [2] = system: HBV (HepG2.117 cell line, inducibly HBV producing); experiment: Anti-HBV activity: intracellular HBV DNA by real-time PCR in HepG2.117 cells after 3 days of treatment; assay type: cell-based, hepatitis B virus; settings: Hepatitis B virus, HepG2.117, 72 h, read-out: EC50 (μM, mean value)
# Summary of the method: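 Tet-off HepG2.117; HBV replication induced (no doxycycline); serial compound dilutions, 3 d; intracellular HBV DNA by real-time PCR, HBV-specific primers/probe.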
# [3] = human, 3-days incubation (unmarked values)
# [4] = HepG2.117 cells, 3 days of treatment, intracellular HBV DNA by real-time PCR, mean value
# [5] = human, 3-days incubation (not marked with *)
# [6] = HepG2.117 cells, intracellular HBV DNA by real-time PCR, 3 days of treatment, mean value
smiles,measurement,setting,value
"CNC(=O)c1ccc(-n2c(NC)nc3c(c2=O)C[C@@H](C)N(C(=O)c2ccc(Cl)c(Cl)c2)C3)nc1 [Compound C331, 6-[(6R)-7-(3,4-dichlorobenzoyl)-6-methyl-2-(methylamino)-4-oxo-5,6,7,8-tetrahydropyrido[3,4-d]pyrimidin-3(4H)-yl]-N-methylpyridine-3-carboxamide]",CC50 at 3 days,[1]; [3],> 50 µM
same,EC50,[2]; [4],0.95 µM
"CNC(=O)c1ccc(-n2c(N3CC4(CCC4)C3)nc3c(c2=O)C[C@@H](C)N(C(=O)c2ccc(Cl)c(Cl)c2)C3)cc1 [Compound C332, 4-[(6R)-2-(2-azaspiro[3.3]heptan-2-yl)-7-(3,4-dichlorobenzoyl)-6-methyl-4-oxo-5,6,7,8-tetrahydropyrido[3,4-d]pyrimidin-3(4H)-yl]-N-methylbenzamide]",CC50 at 3 days,[1]; [3],26 µM
same,EC50,[2]; [4],1.46 µM
"CNC(=O)c1ccc(-n2c(NC3CC3(C)C)nc3c(c2=O)C[C@@H](C)N(C(=O)c2ccc(Cl)c(Cl)c2)C3)cc1 (stereo partly drawn) [Compound C333, 4-[(6R)-7-(3,4-dichlorobenzoyl)-2-[(2,2-dimethylcyclopropyl)amino]-6-methyl-4-oxo-5,6,7,8-tetrahydropyrido[3,4-d]pyrimidin-3(4H)-yl]-N-methylbenzamide]",CC50 at 3 days,[1]; [3],> 43 µM
same,EC50,[2]; [4],1.64 µM
"CNC(=O)c1ccc(-n2c(N[C@H]3CC3(C)C)nc3c(c2=O)C[C@@H](C)N(C(=O)c2ccc(Cl)c(Cl)c2)C3)cc1 [Compound C334, 4-[(6R)-7-(3,4-dichlorobenzoyl)-2-{[(1S)-2,2-dimethylcyclopropyl]amino}-6-methyl-4-oxo-5,6,7,8-tetrahydropyrido[3,4-d]pyrimidin-3(4H)-yl]-N-methylbenzamide]",CC50 at 3 days,[1]; [3],> 50 µM
same,EC50,[2]; [4],1.89 µM
"CNC(=O)c1ccc(-n2c(N[C@H](C)CC(=O)O)nc3c(c2=O)C[C@@H](C)N(C(=O)c2ccc(Cl)c(Cl)c2)C3)cc1 [Compound C336, (3R)-3-({(6R)-7-(3,4-dichlorobenzoyl)-6-methyl-3-[4-(methylcarbamoyl)phenyl]-4-oxo-3,4,5,6,7,8-hexahydropyrido[3,4-d]pyrimidin-2-yl}amino)butanoic acid]",CC50 at 3 days,[1]; [3],> 50 µM
same,EC50,[2]; [4],7.66 µM
"CNC(=O)c1ccc(-n2c(NC(C)C)nc3c(c2=O)C[C@@H](C)N(C(=O)c2ccc(Cl)c(Cl)c2)C3)cc1Cl [Compound C338, 2-chloro-4-[(6R)-7-(3,4-dichlorobenzoyl)-6-methyl-4-oxo-2-[(propan-2-yl)amino]-5,6,7,8-tetrahydropyrido[3,4-d]pyrimidin-3(4H)-yl]-N-methylbenzamide]",CC50 at 3 days,[1]; [3],> 50 µM
same,EC50,[2]; [4],0.1 µM
"CNS(=O)(=O)c1ccc(-n2c(NC(C)C)nc3c(c2=O)C[C@@H](C)N(C(=O)c2ccc(Cl)c(Cl)c2)C3)cc1 [Compound C339, 4-[(6R)-7-(3,4-dichlorobenzoyl)-6-methyl-4-oxo-2-[(propan-2-yl)amino]-5,6,7,8-tetrahydropyrido[3,4-d]pyrimidin-3(4H)-yl]-N-methylbenzene-1-sulfonamide]",CC50 at 3 days,[1]; [3],> 50 µM
same,EC50,[2]; [4],0.57 µM
CNC(=O)c1ccc(-n2c(NC(C)C)nc3c(c2=O)C[C@@H](C)N(C(=O)c2ccc(Cl)c(Cl)c2)C3)cn1 [Compound C344],CC50 at 3 days,[1]; 3-days incubation (unmarked values),> 50 µM
same,EC50,[2],0.15 µM
"CNC(=O)c1ccc(-n2c(N(C)C34CC(C3)C4)nc3c(c2=O)C[C@@H](C)N(C(=O)c2ccc(Cl)c(Cl)c2)C3)cc1 [Compound C345, 4-[(6R)-2-[(bicyclo[1.1.1]pentan-1-yl)(methyl)amino]-7-(3,4-dichlorobenzoyl)-6-methyl-4-oxo-5,6,7,8-tetrahydropyrido[3,4-d]pyrimidin-3(4H)-yl]-N-methylbenzamide]",CC50 at 3 days,[1]; [3],21.6 µM
same,EC50,[2]; [4],0.32 µM
"CNC(=O)c1ccc(-n2c(NC(C)c3ccc(OC)cc3)nc3c(c2=O)C[C@@H](C)N(C(=O)c2ccc(Cl)c(Cl)c2)C3)cc1 (stereo partly drawn) [Compound C346, 4-[(6R)-7-(3,4-dichlorobenzoyl)-2-{[1-(4-methoxyphenyl)ethyl]amino}-6-methyl-4-oxo-5,6,7,8-tetrahydropyrido[3,4-d]pyrimidin-3(4H)-yl]-N-methylbenzamide]",CC50 at 3 days,[1]; [3],36.3 µM
same,EC50,[2]; [4],0.13 µM
"CNC(=O)c1ccc(-n2c(NC3CCC34CCC4)nc3c(c2=O)C[C@@H](C)N(C(=O)c2ccc(Cl)c(Cl)c2)C3)cc1 (stereo partly drawn) [Compound C347, 4-[(6R)-7-(3,4-dichlorobenzoyl)-6-methyl-4-oxo-2-[(spiro[3.3]heptan-1-yl)amino]-5,6,7,8-tetrahydropyrido[3,4-d]pyrimidin-3(4H)-yl]-N-methylbenzamide]",CC50 at 3 days,[1]; [3],24.2 µM
same,EC50,[2]; [4],0.27 µM
"CNC(=O)c1cc(-n2c(NC(C)C)nc3c(c2=O)C[C@@H](C)N(C(=O)c2ccc(Cl)c(Cl)c2)C3)n(C)n1 [Compound C354, 5-[(6R)-7-(3,4-dichlorobenzoyl)-6-methyl-4-oxo-2-[(propan-2-yl)amino]-5,6,7,8-tetrahydropyrido[3,4-d]pyrimidin-3(4H)-yl]-N,1-dimethyl-1H-pyrazole-3-carboxamide]",CC50 at 3 days,[1]; [3],> 50 µM
same,EC50,[2]; [4],0.16 µM
"CNC(=O)c1cc(-n2c(NC(C)C)nc3c(c2=O)C[C@@H](C)N(C(=O)c2ccc(Cl)c(Cl)c2)C3)[nH]n1 [Compound C355, 5-[(6R)-7-(3,4-dichlorobenzoyl)-6-methyl-4-oxo-2-[(propan-2-yl)amino]-5,6,7,8-tetrahydropyrido[3,4-d]pyrimidin-3(4H)-yl]-N-methyl-1H-pyrazole-3-carboxamide]",CC50 at 3 days,[1]; [3],34.2 µM
same,EC50,[2]; [4],0.09 µM
CC(C)Nc1nc2c(c(=O)n1-c1ccc(S(C)(=O)=O)cc1)CCN(C(=O)c1ccc3cncn3c1)C2 [Compound C356],CC50 at 3 days,[1]; [3],> 50 µM
same,EC50,[2]; [4],> 50 µM
CC(C)Nc1nc2c(c(=O)n1-c1ccc(S(C)(=O)=O)cc1)CCN(C(=O)c1nc3ccccc3[nH]1)C2 [Compound C358],CC50 at 3 days,[1]; [3],> 50 µM
same,EC50,[2]; [4],> 50 µM
CC(C)Nc1nc2c(c(=O)n1-c1ccc(S(C)(=O)=O)cc1)CCN(C(=O)c1ccc3nccn3c1)C2 [Compound C359],CC50 at 3 days,[1]; [3],> 50 µM
same,EC50,[2]; [4],> 50 µM
CC(C)Nc1nc2c(c(=O)n1-c1ccc(S(C)(=O)=O)cc1)CCN(C(=O)C1Cc3ccccc3O1)C2 (centres unmarked) [Compound C360],CC50 at 3 days,[1]; [3],> 50 µM
same,EC50,[2]; [4],> 50 µM
CC(C)Nc1nc2c(c(=O)n1-c1ccc(S(C)(=O)=O)cc1)CCN(C(=O)c1ccn3cncc3c1)C2 [Compound C361],CC50 at 3 days,[1]; [3],> 50 µM
same,EC50,[2]; [4],> 50 µM
CC(C)Nc1nc2c(c(=O)n1-c1ccc(S(C)(=O)=O)cc1)CCN(C(=O)c1nc3ccccc3o1)C2 [Compound C362],CC50 at 3 days,[1]; [3],> 50 µM
same,EC50,[2]; [4],> 50 µM
CC(C)Nc1nc2c(c(=O)n1-c1ccc(S(C)(=O)=O)cc1)CCN(C(=O)c1ccc3ncn(C)c3c1)C2 [Compound C363],CC50 at 3 days,[1]; [3],> 50 µM
same,EC50,[2]; [4],> 50 µM
CC(C)Nc1nc2c(c(=O)n1-c1ccc(S(C)(=O)=O)cc1)CCN(C(=O)c1ccc3ocnc3c1)C2 [Compound C364],CC50 at 3 days,[1]; [3],> 50 µM
same,EC50,[2]; [4],> 7.2 µM
CC(C)Nc1nc2c(c(=O)n1-c1ccc(S(C)(=O)=O)cc1)CCN(C(=O)c1ccn3ncnc3c1)C2 [Compound C365],CC50 at 3 days,[1]; [3],> 50 µM
same,EC50,[2]; [4],> 10 µM
CC(C)Nc1nc2c(c(=O)n1-c1ccc(S(C)(=O)=O)cc1)CCN(C(=O)c1ccc3scnc3c1)C2 [Compound C366],CC50 at 3 days,[1]; [3],> 50 µM
same,EC50,[2]; [4],> 10 µM
CC(C)Nc1nc2c(c(=O)n1-c1ccc(S(C)(=O)=O)cc1)CCN(C(=O)c1ccc(C(F)(F)F)nc1)C2 [Compound C367],CC50 at 3 days,[1]; [3],> 50 µM
same,EC50,[2]; [4],> 10 µM
COC(=O)[C@H]1CC[C@H](n2c(NC(C)C)nc3c(c2=O)C[C@@H](C)N(C(=O)c2ccc(Cl)c(Cl)c2)C3)CC1 [Compound C370],CC50 at 3 days,[1]; [3],> 50 µM
same,EC50,[2]; [4],0.85 µM
Cc1noc(-c2ccc(-n3c(NC(C)C)nc4c(c3=O)C[C@@H](C)N(C(=O)c3ccc(Cl)c(Cl)c3)C4)cc2)n1 [Compound C371],CC50 at 3 days,[1]; [3],> 50 µM
same,EC50,[2]; [4],0.13 µM
CNC(=O)c1ccc(-n2c(NC(C)c3ccnn3C)nc3c(c2=O)C[C@@H](C)N(C(=O)c2ccc(Cl)c(Cl)c2)C3)cc1 (some centres unmarked) [Compound C372],CC50 at 3 days,[1]; [3],> 50 µM
same,EC50,[2]; [4],11.7 µM
CNC(=O)c1ccc(-n2c(N3CCC34CCC4)nc3c(c2=O)C[C@@H](C)N(C(=O)c2ccc(Cl)c(Cl)c2)C3)cc1 [Compound C373],CC50 at 3 days,[1]; [3],28.3 µM
same,EC50,[2]; [4],0.71 µM
CNC(=O)c1nnc(-n2c(NC(C)C)nc3c(c2=O)C[C@@H](C)N(C(=O)c2ccc(Cl)c(Cl)c2)C3)[nH]1 [Compound C374],CC50 at 3 days,[1]; [3],> 50 µM
same,EC50,[2]; [4],1.49 µM
CNC(=O)c1cc(Cl)c(-n2c(NC(C)C)nc3c(c2=O)C[C@@H](C)N(C(=O)c2ccc(Cl)c(Cl)c2)C3)c(Cl)c1 [Compound C376],CC50 at 3 days,[1]; [3],> 50 µM
same,EC50,[2]; [4],0.09 µM
CNC(=O)c1ccc(-n2c(NCc3cccnc3)nc3c(c2=O)C[C@@H](C)N(C(=O)c2ccc(Cl)c(Cl)c2)C3)cc1 [Compound C378],CC50 at 3 days,[1]; [5],> 50 µM
same,EC50,[2]; [6],5.73 µM
CNC(=O)c1csc(-n2c(NC(C)C)nc3c(c2=O)C[C@@H](C)N(C(=O)c2ccc(Cl)c(Cl)c2)C3)n1 [Compound C379],CC50 at 3 days,[1]; [5],22.1 µM
same,EC50,[2]; [6],0.22 µM
CNC(=O)c1ccc(-n2c(N[C@@H](C)c3ccc(F)cc3)nc3c(c2=O)C[C@@H](C)N(C(=O)c2ccc(Cl)c(Cl)c2)C3)cc1 [Compound C380],CC50 at 3 days,[1]; [5],15.7 µM
same,EC50,[2]; [6],0.1 µM
CNC(=O)c1ccc(-n2c(NCC3(C)CC3)nc3c(c2=O)C[C@@H](C)N(C(=O)c2ccc(Cl)c(Cl)c2)C3)cc1 [Compound C381],CC50 at 3 days,[1]; [5],31.8 µM
same,EC50,[2]; [6],0.95 µM
